Test results as given in patent US20220249441A1, “Homodimeric Tobramycin Adjuvant Repurposes Novobiocin as an Effective Antibacterial Agent Against Gram-Negative Bacteria” (priority 2019, published 2022).

Assays:
[1] = system: P. aeruginosa PAO1 and efflux deficient mutants, MDR/XDR isolates; assay: microbe, parasite or virus in culture; assay type: cell-based, Pseudomonas aeruginosa
Protocol: Antimicrobial Susceptibility Assay. The in vitro antimicrobial activity of all compounds/antibiotics against a panel of bacteria was evaluated by microbroth dilution method in accordance with the Clinical and Laboratory Standards Institute (CLSI) guidelines (using ATCC strains as quality control strains) (54). […] The broth with or without bacterial cells was used as positive or negative control, respectively.

P. aeruginosa = assay: Checkerboard assay (antibiotic + adjuvant combination MIC); assay type: cell-based, Pseudomonas aeruginosa; settings: compound at 8 μM; for MIC of Aztreonam + compound / MIC of Ceftazidime + compound / MIC of Imipenem + compound / MIC of Piperacillin + compound: P. aeruginosa PAO1
[2] = system: panel of Gram-positive and Gram-negative bacteria; assay: Antimicrobial susceptibility assay against a panel of bacteria; assay type: cell-based; settings: some isolates
Protocol: Antimicrobial Susceptibility Assay. The in vitro antimicrobial activity of all compounds/antibiotics against a panel of bacteria was evaluated by microbroth dilution method in accordance with the Clinical and Laboratory Standards Institute (CLSI) guidelines (using ATCC strains as quality control strains) (54). Overnight grown bacterial cultures were diluted in saline to achieve a 0.5 McFarland turbidity, followed by 1:50 dilution in Mueller-Hinton broth (MHB) for inoculation to a final concentration of approximately 5×10^5 CFU/mL. […] The lowest concentration that prevented the visible growth of bacteria was defined as the MIC for each antimicrobial agent. The broth with or without bacterial cells was used as positive or negative control, respectively.

[3] = PAO200 (first column so headed)
[4] = PAO200 (second column so headed)

## Cl.Cl.Cl.Cl.Cl.NC[C@H]1O[C@H](O[C@H]2[C@H](OCCCCCCCCCCCCN3CCN(c4cc5c(cc4F)c(=O)c(C(=O)O)cn5C4CC4)CC3)[C@@H](O)[C@H](N)C[C@@H]2N)[C@H](N)C[C@@H]1O [Compound 24]
[1]; PA0750 (efflux-deficient)
  MIC: 2 µg/mL
[1]; PAO1 (wild-type)
  MIC: 32 µg/mL
[1]; [3]
  MIC: 4 µg/mL
[1]; [4]
  MIC: 2 µg/mL
P. aeruginosa
  MIC of Aztreonam + compound: 0.5 µg/mL
  MIC of Ceftazidime + compound: 0.25 µg/mL
  MIC of Imipenem + compound: 1 µg/mL
  MIC of Piperacillin + compound: 2 µg/mL
P. aeruginosa; PA 259-96918
  MIC of ATM in the presence of compound: 8 µg/mL
  MIC of CAZ in the presence of compound: 128 µg/mL
  MIC of IPM in the presence of compound: 16 µg/mL
P. aeruginosa; PA 260-97103
  MIC of ATM in the presence of compound: 0.25 µg/mL
  MIC of CAZ in the presence of compound: 0.25 µg/mL
  MIC of IPM in the presence of compound: 2 µg/mL
P. aeruginosa; PA 262-101856
  MIC of ATM in the presence of compound: 16 µg/mL
  MIC of CAZ in the presence of compound: 4 µg/mL
  MIC of IPM in the presence of compound: 8 µg/mL
P. aeruginosa; PA 264-104354
  MIC of ATM in the presence of compound: 16 µg/mL
  MIC of CAZ in the presence of compound: 64 µg/mL
  MIC of IPM in the presence of compound: 8 µg/mL
P. aeruginosa; PA 86052
  MIC of ATM in the presence of compound: 4 µg/mL
  MIC of CAZ in the presence of compound: 4 µg/mL
  MIC of IPM in the presence of compound: 4 µg/mL
P. aeruginosa; PA 88949
  MIC of ATM in the presence of compound: 8 µg/mL
  MIC of CAZ in the presence of compound: 32 µg/mL
  MIC of IPM in the presence of compound: 64 µg/mL
P. aeruginosa; PA 91433
  MIC of ATM in the presence of compound: 8 µg/mL
  MIC of CAZ in the presence of compound: 0.5 µg/mL
  MIC of IPM in the presence of compound: 8 µg/mL
P. aeruginosa; PA 100036
  MIC of ATM in the presence of compound: 8 µg/mL
  MIC of CAZ in the presence of compound: 4 µg/mL
  MIC of IPM in the presence of compound: 4 µg/mL
P. aeruginosa; PA 101243
  MIC of ATM in the presence of compound: 0.25 µg/mL
  MIC of CAZ in the presence of compound: 4 µg/mL
  MIC of IPM in the presence of compound: 4 µg/mL
P. aeruginosa; PA 101885
  MIC of ATM in the presence of compound: 4 µg/mL
  MIC of CAZ in the presence of compound: 4 µg/mL
  MIC of IPM in the presence of compound: 2 µg/mL
P. aeruginosa; PA 107092
  MIC of ATM in the presence of compound: 32 µg/mL
  MIC of CAZ in the presence of compound: 64 µg/mL
  MIC of IPM in the presence of compound: 16 µg/mL
P. aeruginosa; PA 108590
  MIC of ATM in the presence of compound: 0.13 µg/mL
  MIC of CAZ in the presence of compound: 1 µg/mL
  MIC of IPM in the presence of compound: 0.5 µg/mL
P. aeruginosa; PA 109084
  MIC of ATM in the presence of compound: 32 µg/mL
  MIC of CAZ in the presence of compound: 32 µg/mL
  MIC of IPM in the presence of compound: 8 µg/mL
P. aeruginosa; PA 114228
  MIC of ATM in the presence of compound: 8 µg/mL
  MIC of CAZ in the presence of compound: 4 µg/mL
  MIC of IPM in the presence of compound: 1 µg/mL
P. aeruginosa; PA O200 (efflux-deficient)
  MIC of ATM in the presence of compound: 0.03 µg/mL
  MIC of CAZ in the presence of compound: 0.13 µg/mL
  MIC of IPM in the presence of compound: 1 µg/mL
P. aeruginosa; PA O750 (efflux-deficient)
  MIC of ATM in the presence of compound: 0.13 µg/mL
  MIC of CAZ in the presence of compound: 0.01 µg/mL
  MIC of IPM in the presence of compound: 2 µg/mL
P. aeruginosa; PAO1
  MIC of ATM in the presence of compound: 0.5 µg/mL
  MIC of CAZ in the presence of compound: 0.25 µg/mL
  MIC of IPM in the presence of compound: 1 µg/mL
[2]
  intrinsic antimicrobial activity: some modest residual activity

## Cl.Cl.Cl.Cl.Cl.Cl.NC[C@H]1O[C@H](O[C@H]2[C@H](OCCCCCCCCCCCCN3CCN(c4cc5c(cc4F)c(=O)c(C(=O)O)cn5C4CC4)CC3)[C@@H](O[C@H]3O[C@H](CO)[C@@H](O)[C@H](N)[C@H]3O)[C@H](N)C[C@@H]2N)[C@H](N)C[C@@H]1O [Compound 21, Tobramycin-ciprofloxacin]
[1]; PA0750 (efflux-deficient)
  MIC: 2 µg/mL
[1]; PAO1 (wild-type)
  MIC: 32 µg/mL
[1]; [3]
  MIC: 4 µg/mL
[1]; [4]
  MIC: 2 µg/mL
P. aeruginosa
  MIC of Aztreonam + compound: 0.25 µg/mL
  MIC of Ceftazidime + compound: 0.25 µg/mL
  MIC of Imipenem + compound: 0.5 µg/mL
  MIC of Piperacillin + compound: 2 µg/mL
  resistant isolates in which CLSI breakpoint was attained for aztreonam: twelve out of thirteen
  resistant isolates in which CLSI breakpoint was attained for ceftazidime: four out of eleven
  resistant isolates in which CLSI breakpoint was attained for imipenem: ten out of seventeen
P. aeruginosa; PA 259-96918
  MIC of ATM in the presence of compound: 8 µg/mL
  MIC of CAZ in the presence of compound: 64 µg/mL
  MIC of IPM in the presence of compound: 16 µg/mL
P. aeruginosa; PA 260-97103
  MIC of ATM in the presence of compound: 4 µg/mL
  MIC of CAZ in the presence of compound: 4 µg/mL
  MIC of IPM in the presence of compound: 2 µg/mL
P. aeruginosa; PA 262-101856
  MIC of ATM in the presence of compound: 4 µg/mL
  MIC of CAZ in the presence of compound: 4 µg/mL
  MIC of IPM in the presence of compound: 4 µg/mL
P. aeruginosa; PA 264-104354
  MIC of ATM in the presence of compound: 8 µg/mL
  MIC of CAZ in the presence of compound: 16 µg/mL
  MIC of IPM in the presence of compound: 4 µg/mL
P. aeruginosa; PA 86052
  MIC of ATM in the presence of compound: 8 µg/mL
  MIC of CAZ in the presence of compound: 32 µg/mL
  MIC of IPM in the presence of compound: 8 µg/mL
P. aeruginosa; PA 88949
  MIC of ATM in the presence of compound: 8 µg/mL
  MIC of CAZ in the presence of compound: 32 µg/mL
  MIC of IPM in the presence of compound: 8 µg/mL
P. aeruginosa; PA 91433
  MIC of ATM in the presence of compound: 4 µg/mL
  MIC of CAZ in the presence of compound: 2 µg/mL
  MIC of IPM in the presence of compound: 2 µg/mL
P. aeruginosa; PA 100036
  MIC of ATM in the presence of compound: 4 µg/mL
  MIC of CAZ in the presence of compound: 2 µg/mL
  MIC of IPM in the presence of compound: 2 µg/mL
P. aeruginosa; PA 101243
  MIC of ATM in the presence of compound: 4 µg/mL
  MIC of CAZ in the presence of compound: 8 µg/mL
  MIC of IPM in the presence of compound: 2 µg/mL
P. aeruginosa; PA 101885
  MIC of ATM in the presence of compound: 1 µg/mL
  MIC of CAZ in the presence of compound: 1 µg/mL
  MIC of IPM in the presence of compound: 2 µg/mL
P. aeruginosa; PA 107092
  MIC of ATM in the presence of compound: 8 µg/mL
  MIC of CAZ in the presence of compound: 16 µg/mL
  MIC of IPM in the presence of compound: 8 µg/mL
P. aeruginosa; PA 108590
  MIC of ATM in the presence of compound: 0.5 µg/mL
  MIC of CAZ in the presence of compound: 0.5 µg/mL
  MIC of IPM in the presence of compound: 0.25 µg/mL
P. aeruginosa; PA 109084
  MIC of ATM in the presence of compound: 16 µg/mL
  MIC of CAZ in the presence of compound: 16 µg/mL
  MIC of IPM in the presence of compound: 8 µg/mL
P. aeruginosa; PA 114228
  MIC of ATM in the presence of compound: 2 µg/mL
  MIC of CAZ in the presence of compound: 0.5 µg/mL
  MIC of IPM in the presence of compound: 2 µg/mL
P. aeruginosa; PA O200 (efflux-deficient)
  MIC of ATM in the presence of compound: 0.03 µg/mL
  MIC of CAZ in the presence of compound: 0.06 µg/mL
  MIC of IPM in the presence of compound: 1 µg/mL
P. aeruginosa; PA O750 (efflux-deficient)
  MIC of ATM in the presence of compound: 0.06 µg/mL
  MIC of CAZ in the presence of compound: 0.03 µg/mL
  MIC of IPM in the presence of compound: 0.5 µg/mL
P. aeruginosa; PAO1
  MIC of ATM in the presence of compound: 0.25 µg/mL
  MIC of CAZ in the presence of compound: 0.25 µg/mL
  MIC of IPM in the presence of compound: 0.5 µg/mL
[2]
  intrinsic antimicrobial activity: some modest residual activity
